In patent US10329295B2, “Pyrrolotriazine inhibitors of IRAK4 activity” (MERCK SHARP & DOHME CORP., priority 2015, dated 2019):
Where a name gives a salt, the structure may show the parent alone.

Molecular target: GST tagged IRAK4 (Homo sapiens (Human), UniProt Q9NWZ3)
Assay: IRAK4 Kinase Assay (IMAP fluorescence polarization)
Assay type: biochemical
Details: 0.5 nM GST tagged IRAK4, 100 μM ATP, 30 minutes at 25° C.
Description: The kinase activity of IRAK4 is determined by its ability to catalyze the phosphorylation of a fluorescent polypeptide substrate. The extent of phosphorylation is measured using the IMAP technology (Molecular Devices) where the phosphorylated fluorescent substrate binds to the large M(III)-based nanoparticles which reduces the rotational speed of the substrate and thus increases its fluorescent polarization (FP).
20 μL reaction mixture contains 10 mM TriHCl, pH 7.2, 0.5 nM GST tagged IRAK4 (SignalChem), 100 nM fluorescent peptide substrate (RP7030, Molecular Devices), 100 μM ATP, 1 mM DDT, 1 mM MgCl2, and 0.01% Tween 20. The reaction is initiated by the addition of ATP. After incubation for 30 minutes at 25° C., 60 μL of Progressive IMAP Reagent (Molecular Devices) is added to stop the reaction. Change in RP7030's FP is determined by a FP reader (Analyst HT, LJL BioSystems).

Chain of GST tagged IRAK4 (Q9NWZ3 whole entry): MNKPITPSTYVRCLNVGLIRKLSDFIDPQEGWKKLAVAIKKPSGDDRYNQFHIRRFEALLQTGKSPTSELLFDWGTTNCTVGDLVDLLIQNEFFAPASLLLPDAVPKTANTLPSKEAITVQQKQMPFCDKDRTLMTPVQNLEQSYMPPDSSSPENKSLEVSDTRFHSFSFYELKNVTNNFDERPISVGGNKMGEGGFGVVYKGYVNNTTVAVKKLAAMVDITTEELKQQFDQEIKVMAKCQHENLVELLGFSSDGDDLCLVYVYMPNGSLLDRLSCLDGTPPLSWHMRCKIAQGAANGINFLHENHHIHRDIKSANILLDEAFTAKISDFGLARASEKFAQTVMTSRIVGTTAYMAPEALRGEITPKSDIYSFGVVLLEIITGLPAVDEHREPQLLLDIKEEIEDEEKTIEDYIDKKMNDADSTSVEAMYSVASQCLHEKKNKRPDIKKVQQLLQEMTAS

Compound	IC50
Cn1cc(NC(=O)c2ccc3cnc(N4C[C@@H]5CN[C@@H](C5)C4)nn23)c(C#N)n1 (single isomer, unassigned) [Example 113, N-(3-cyano-1-methyl-1H-pyrazol-4-yl)-2-[(1S,5S)- or (1R,5R)-3,6-diazabicyclo[3.2.1]oct-3-yl]pyrrolo[2,1-f][1,2,4]triazine-7-carboxamide]	85 nM
N[C@@H]1[C@H](Nc2ncc3ccc(C(=O)Nc4ccsc4Cl)n3n2)CCCC1(F)F [Example 97, 2-{[(1R,2R)-2-amino-3,3-difluorocyclohexyl]amino}-N-(2-chlorothiophen-3-yl)pyrrolo[2,1-f][1,2,4]triazine-7-carboxamide trifluoroacetate]	1910 nM
Cn1cc(NC(=O)c2ccc3cnc(N4C[C@@H]5CC[C@H]4CN5)nn23)c(Br)n1 (single isomer, unassigned) [Example 63, N-(3-bromo-1-methyl-1H-pyrazol-4-yl)-2-[(1S,4S)- or (1R,4R)-2,5-diazabicyclo[2.2.2]oct-2-yl]pyrrolo[2,1-f][1,2,4]triazine-7-carboxamide trifluoroacetate]	92 nM
O=C(Nc1ccsc1Br)c1ccc2cnc(N3C[C@H]4CC[C@@H]3CN4)nn12 (single isomer, unassigned) [Example 49, N-(2-bromothiophen-3-yl)-2-[(1S,4S)- or (1R,4R)-2,5-diazabicyclo[2.2.2]oct-2-yl]pyrrolo[2,1-f][1,2,4]triazine-7-carboxamide trifluoroacetate]	1930 nM
Cn1cc(NC(=O)c2ccc3cnc(N[C@H]4CC(F)(F)CC[C@H]4N)nn23)c(C(F)F)n1 (single isomer, unassigned) [Example 130, 2-{[(1S,2R)- or (1R,2S)-2-amino-5,5-difluorocyclohexyl]amino}-N-[3-(difluoromethyl)-1-methyl-1H-pyrazol-4-yl]pyrrolo[2,1-f][1,2,4]triazine-7-carboxamide]	668 nM
N#Cc1ccccc1NC(=O)c1ccc2cnc(N3CCCNCC3)nn12 [Example 59, N-(2-cyanophenyl)-2-(1,4-diazepan-1-yl)pyrrolo[2,1-f][1,2,4]triazine-7-carboxamide trifluoroacetate]	4270 nM
O=C(Nc1ccsc1C(F)(F)F)c1ccc2cnc(N3C[C@@H]4CC[C@H]3CN4)nn12 (single isomer, unassigned) [Example 86, 2-[(1S,4S)- or (1R,4R)-2,5-diazabicyclo[2.2.2]oct-2-yl]-N-[2-(trifluoromethyl)thiophen-3-yl]pyrrolo[2,1-f][1,2,4]triazine-7-carboxamide trifluoroacetate]	2270 nM
O=C(Nc1cscc1C(F)F)c1ccc2cnc(N3C[C@@H]4CC[C@H]3CN4)nn12 (single isomer, unassigned) [Example 80, 2-[(1S,4S)- or (1R,4R)-2,5-diazabicyclo[2.2.2]oct-2-yl]-N-[4-(difluoromethyl)thiophen-3-yl]pyrrolo[2,1-f][1,2,4]triazine-7-carboxamide trifluoroacetate]	172 nM
Cn1cc(NC(=O)c2ccc3cnc(N4CC5CCC(C4)N5)nn23)c(C(F)F)n1 [Example 83, 2-(3,8-diazabicyclo[3.2.1]oct-3-yl)-N-[3-[difluoromethyl)-1-methyl-1H-pyrazol-4-yl]pyrrolo[2,1-f][1,2,4]triazine-7-carboxamide trifluoroacetate]	2 nM
Cn1cc(NC(=O)c2ccc3cnc(N[C@@H]4CCCC(F)(F)[C@@H]4N)nn23)c(Cl)n1 [Example 79, 2-{[(1R,2R)-2-amino-3,3-difluorocyclohexyl]amino}-N-(3-chloro-1-methyl-1H-pyrazol-4-yl)pyrrolo[2,1-f][1,2,4]triazine-7-carboxamide trifluoroacetate]	229 nM
N[C@@H]1[C@H](Nc2ncc3ccc(C(=O)Nc4ccccc4Cl)n3n2)CCCC1(F)F [Example 138, 2-{[(1R,2R)-2-amino-3,3-difluorocyclohexyl]amino}-N-(2-chlorophenyl)pyrrolo[2,1-f][1,2,4]triazine-7-carboxamide trifluoroacetate]	1640 nM
Cn1cc(NC(=O)c2ccc3cnc(N4C[C@H]5CC[C@@H]4CN5)nn23)c(Br)n1 (single isomer, unassigned) [Example 64, N-(3-bromo-1-methyl-1H-pyrazol-4-yl)-2-[(1S,4S)- or (1R,4R)-2,5-diazabicyclo[2.2.2]oct-2-yl]pyrrolo[2,1-f][1,2,4]triazine-7-carboxamide trifluoroacetate]	122 nM
N#Cc1sccc1NC(=O)c1ccc2cnc(N[C@@H]3CCCC[C@@H]3O)nn12 [Example 147, N-(2-cyanothiophen-3-yl)-2-{[(1R,2S)-2-hydroxycyclohexyl]amino}-pyrrolo[2,1-f][1,2,4]triazine-7-carboxamide]	396 nM
N#Cc1ccccc1NC(=O)c1ccc2cnc(N[C@@H]3CCCC[C@@H]3N)nn12 [Example 50, 2-{[(1R,2S)-2-aminocyclohexyl]amino}-N-(2-cyanophenyl)pyrrolo[2,1-f][1,2,4]triazine-7-carboxamide trifluoroacetate]	11 nM
Cn1cc(NC(=O)c2ccc3cnc(N4C[C@H](N)C[C@H](F)C4)nn23)c(C(F)F)n1 [Example 163, 2-[(3R,5S)-3-amino-5-fluoropiperidin-1-yl]-N-[3-(difluoromethyl)-1-methyl-1H-pyrazol-4-yl]pyrrolo[2,1-f][1,2,4]triazine-7-carboxamide trifluoroacetate]	0.7 nM
N#Cc1cscc1NC(=O)c1ccc2cnc(N[C@@H]3CCCC(F)(F)[C@@H]3N)nn12 [Example 153, 2-{[(1R,2R)-2-amino-3,3-difluorocyclohexyl]amino}-N-(4-cyanothiophen-3-yl)pyrrolo[2,1-f][1,2,4]triazine-7-carboxamide trifluoroacetate]	120 nM
Cn1cc(NC(=O)c2ccc3cnc(N[C@H]4CNC[C@@H](F)C4)nn23)c(C(F)F)n1 [Example 159, N-[3-(difluoromethyl)-1-methyl-1H-pyrazol-4-yl]-2-{[(3R,5S)-5-fluoropiperidin-3-yl]amino}pyrrolo[2,1-f][1,2,4]triazine-7-carboxamide]	0.5 nM
Cn1cc(NC(=O)c2ccc3cnc(N4C[C@@H]5CC[C@H]4CN5)nn23)c(Cl)n1 (single isomer, unassigned) [Example 44, N-(3-chloro-1-methyl-1H-pyrazol-4-yl)-2-[(1S,4S)- or (1R,4R)-2,5-diazabicyclo[2.2.2]oct-2-yl]pyrrolo[2,1-f][1,2,4]triazine-7-carboxamide trifluoroacetate]	125 nM
N#Cc1ccccc1NC(=O)c1ccc2cnc(N3CCNCC3)nn12 [Example 58, N-(2-cyanophenyl)-2-piperazin-1-ylpyrrolo[2,1-f][1,2,4]triazine-7-carboxamide trifluoroacetate]	1910 nM

Further lines, results first:

IC50	Compound
3980 nM	O=C(Nc1ccccc1C(F)(F)F)c1ccc2cnc(N3CCCNCC3)nn12 [Example 28, 2-(1,4-diazepan-1-yl)-N-[2-(trifluoromethyl)phenyl]-pyrrolo[2,1-f][1,2,4]triazine-7-carboxamide trifluoroacetate]
26 nM	N#Cc1sccc1NC(=O)c1ccc2cnc(N3CCC[C@@H](N)C3)nn12 [Example 141, 2-[(3R)-3-aminopiperidin-1-yl]-N-(2-cyanothiophen-3-yl)pyrrolo[2,1-f][1,2,4]triazine-7-carboxamide trifluoroacetate]
819 nM	O=C(Nc1ccsc1Cl)c1ccc2cnc(N3C[C@H]4CC[C@@H]3CN4)nn12 (single isomer, unassigned) [Example 54, N-(2-chlorothiophen-3-yl)-2-[(1S,4S)- or (1R,4R)-2,5-diazabicyclo[2.2.2]oct-2-yl]pyrrolo[2,1-f][1,2,4]triazine-7-carboxamide trifluoroacetate]
6 nM	N[C@H]1CCCC[C@H]1Nc1ncc2ccc(C(=O)Nc3cscc3Br)n2n1 [Example 14, 2-{[(1R,2S)-2-aminocyclohexyl]amino}-N-(4-bromothiophen-3-yl)pyrrolo[2,1-f][1,2,4]triazine-7-carboxamide trifluoroacetate]
3 nM	N#Cc1cscc1NC(=O)c1ccc2cnc(N[C@@H]3CCCNC3)nn12 [Example 145, N-(4-cyanothiophen-3-yl)-2-[(3R)-piperidin-3-ylamino]pyrrolo[2,1-f][1,2,4]triazine-7-carboxamide trifluoroacetate]
10 nM	Cn1cc(NC(=O)c2ccc3cnc(N4C[C@@H](N)C[C@H](F)C4)nn23)c(C(F)(F)F)n1 [Example 150, 2-[(3S,5S)-3-amino-5-fluoropiperidin-1-yl]-N-[1-methyl-3-(trifluoromethyl)-1H-pyrazol-4-yl]pyrrolo[2,1-f][1,2,4]triazine-7-carboxamide trifluoroacetate]
1590 nM	N#Cc1cscc1NC(=O)c1ccc2cnc(N[C@@H]3CCCC[C@@H]3O)nn12 [Example 142, N-(4-cyanothiophen-3-yl)-2-{[(1R,2S)-2-hydroxycyclohexyl]amino}-pyrrolo[2,1-f][1,2,4]triazine-7-carboxamide trifluoroacetate]
368 nM	O=C(Nc1cscc1Cl)c1ccc2cnc(N3C[C@@H]4CC[C@H]3CN4)nn12 (single isomer, unassigned) [Example 107, N-(4-chlorothiophen-3-yl)-2-[(1S,4S)- or (1R,4R)-2,5-diazabicyclo[2.2.2]oct-2-yl]pyrrolo[2,1-f][1,2,4]triazine-7-carboxamide trifluoroacetate]
365 nM	N#Cc1cscc1NC(=O)c1ccc2cnc(N3CCCNCC3)nn12 [Example 12, N-(4-cyanothiophen-3-yl)-2-(1,4-diazepan-1-yl)pyrrolo[2,1-f][1,2,4]triazine-7-carboxamide trifluoroacetate]
